Results reported in patent publication US20250376469A1, “INDOLIZINE DERIVATIVES FOR TREATING TRPM3-MEDIATED DISORDERS” (Katholieke Universiteit Leuven, priority 2022, published 2025).

Target: T1, mouse TRPM3α2 (mTRPM3) ion channel (Mus musculus, UniProt J9SQF3)
T1 construct: expressed in transfected cells; host or cells: flip-in HEK293
Assay: TRPM3 ion channel driven Ca2+ uptake (Fluo-4 AM assay, pregnenolone sulfate stimulated)
Format: cell-based
Conditions: TRPM3 overexpressing flip-in HEK293 cells, channel opened with pregnenolone sulfate (PS) 50 μM, 2.4 mM Ca2+
Procedure: In order to monitor the inhibition of the mouse TRPM3α2 (mTRPM3) ion channel by the compounds of the invention, a cellular system making use of an mTRPM3alpha2 or hTRPM3 overexpressing cell line (flip-in HEK293) was used. The TRPM3 channel was stimulated/opened with Pregnenolone sulfate (PS) (50 μM) which results in Ca^2+ influx.
For mTRPM3, the intracellular Ca^2+ was measured with a Calcium responsive dye, Fluor-4 AM ester (Invitrogen). Cells were cultured until a confluence of 80-90%, washed with Versene (Invitrogen) and detached from the surface by a short incubation with 0.05% Trypsin (Invitrogen). The trypsination process was stopped by the addition of complete cell culture medium (DMEM, glutamax, 10% FCS, NEAA, Pen-Strep). Cells were collected and resuspended in Krebs buffer without Calcium at RT.
Prior the cell seeding (±2000 cells/well into a black, 384 well plate (Greiner)) the diluted compound was added in the assay plate, together with the PS dissolved in Krebs buffer containing Calcium. […] Directly after cell addition the plates were read on an Envision fluorescence reader (Perkin Elmer) by an Excitation of 485 nm and emission at 535 nm.
Channel inhibition was calculated compared to a non-PS stimulated control versus a condition stimulated with PS (50 μM) with vehicle. The ability of a the compounds of the invention to inhibit this activity was determined as: Percentage inhibition=[1−((RFU determined for sample with test compound present−RFU determined for sample with positive control inhibitor) divided by (RFU determined in the presence of vehicle−RFU determined for sample with positive control inhibitor))]*100.
The activities of the Example compounds […] tested are depicted in the table below. The activity ranges A, B and C refer to IC50 values in the Fluo-4 AM assay as follows: […]

T1 sequence (J9SQF3 1-1709 isoform J9SQF3-12): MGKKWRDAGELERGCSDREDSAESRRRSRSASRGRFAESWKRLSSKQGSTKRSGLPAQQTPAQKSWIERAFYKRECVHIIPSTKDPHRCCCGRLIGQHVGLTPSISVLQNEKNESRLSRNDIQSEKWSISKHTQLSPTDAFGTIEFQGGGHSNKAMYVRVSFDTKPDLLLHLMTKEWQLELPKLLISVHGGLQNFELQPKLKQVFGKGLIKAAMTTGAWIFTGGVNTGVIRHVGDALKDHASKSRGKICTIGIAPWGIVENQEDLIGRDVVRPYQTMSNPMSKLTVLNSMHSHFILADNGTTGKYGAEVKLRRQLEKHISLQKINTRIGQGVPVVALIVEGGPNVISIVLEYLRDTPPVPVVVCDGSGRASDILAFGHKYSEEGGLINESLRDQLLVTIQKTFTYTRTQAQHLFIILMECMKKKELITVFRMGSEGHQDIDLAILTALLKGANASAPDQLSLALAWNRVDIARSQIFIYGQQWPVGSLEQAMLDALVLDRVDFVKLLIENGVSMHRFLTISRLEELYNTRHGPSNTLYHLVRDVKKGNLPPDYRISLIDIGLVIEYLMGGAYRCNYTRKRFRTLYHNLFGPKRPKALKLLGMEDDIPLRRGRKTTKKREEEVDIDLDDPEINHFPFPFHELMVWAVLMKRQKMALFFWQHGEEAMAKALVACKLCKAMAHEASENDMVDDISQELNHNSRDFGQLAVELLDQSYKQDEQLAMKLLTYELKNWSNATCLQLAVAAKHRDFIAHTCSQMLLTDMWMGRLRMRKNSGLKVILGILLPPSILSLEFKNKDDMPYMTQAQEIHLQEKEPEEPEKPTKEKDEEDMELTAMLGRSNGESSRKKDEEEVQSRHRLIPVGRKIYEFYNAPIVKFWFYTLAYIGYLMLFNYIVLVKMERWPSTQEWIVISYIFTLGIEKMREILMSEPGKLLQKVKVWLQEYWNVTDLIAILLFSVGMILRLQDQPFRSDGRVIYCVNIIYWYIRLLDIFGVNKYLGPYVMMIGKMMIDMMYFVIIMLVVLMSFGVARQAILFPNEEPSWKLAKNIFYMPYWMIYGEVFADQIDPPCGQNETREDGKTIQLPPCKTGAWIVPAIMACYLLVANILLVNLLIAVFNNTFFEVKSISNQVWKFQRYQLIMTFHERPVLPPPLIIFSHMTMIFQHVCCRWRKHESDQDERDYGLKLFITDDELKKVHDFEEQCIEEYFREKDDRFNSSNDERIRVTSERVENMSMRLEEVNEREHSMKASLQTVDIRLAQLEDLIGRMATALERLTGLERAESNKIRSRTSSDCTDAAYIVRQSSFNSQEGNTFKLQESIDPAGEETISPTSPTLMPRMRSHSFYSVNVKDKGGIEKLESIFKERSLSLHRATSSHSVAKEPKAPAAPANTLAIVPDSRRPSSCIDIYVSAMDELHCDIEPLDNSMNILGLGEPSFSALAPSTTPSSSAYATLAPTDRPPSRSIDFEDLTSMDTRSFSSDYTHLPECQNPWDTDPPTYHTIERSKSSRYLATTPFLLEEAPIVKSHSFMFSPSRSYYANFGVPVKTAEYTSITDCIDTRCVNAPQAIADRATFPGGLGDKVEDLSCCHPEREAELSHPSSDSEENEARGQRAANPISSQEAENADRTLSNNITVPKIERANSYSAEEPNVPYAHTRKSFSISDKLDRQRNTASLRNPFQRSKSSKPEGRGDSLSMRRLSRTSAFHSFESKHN

| IC50 [nM] | SMILES |
| --- | --- |
| < 1000 | Cc1cc2ccc(OCc3ccccn3)cn2c1C(=O)NC(C)(CO)C(N)=O (single isomer, unassigned) [Cpd 014 - En1] |
| 1000 to 20000 | Cc1cc2ccc(OCc3ccccn3)cn2c1C(=O)NC(C)(CO)C(N)=O (single isomer, unassigned) [Cpd 014 - En2] |
| < 1000 | Cc1cc2ccc(OCc3ccccn3)cn2c1C(=O)NC1(CO)CCNC1=O (single isomer, unassigned) [Cpd 016 - En1] |
| 1000 to 20000 | Cc1cc2ccc(OCc3ccccn3)cn2c1C(=O)NC1(CO)CCNC1=O (single isomer, unassigned) [Cpd 016 - En2] |
| 1000 to 20000 | Cc1cc2ccc(OCc3ccccn3)cn2c1C(=O)NC1CNCCC1(F)F (single isomer, unassigned) [Cpd 017 - En1, N-(4,4-difluoropiperidin-3-yl)-2-methyl-6-[(pyridin-2-yl)methoxy]indolizine-3-carboxamide] |
| > 20000 | Cc1cc2ccc(OCc3ccccn3)cn2c1C(=O)NC1CNCCC1(F)F (single isomer, unassigned) [Cpd 017 - En2, N-(4,4-difluoropiperidin-3-yl)-2-methyl-6-[(pyridin-2-yl)methoxy]indolizine-3-carboxamide] |
| 1000 to 20000 | Cc1cc2ccc(OCc3ccccn3)cn2c1C(=O)NC(C)C(N)=O (single isomer, unassigned) [Cpd 018 - En1] |
| 1000 to 20000 | Cc1cc2ccc(OCc3ccccn3)cn2c1C(=O)NC(C)C(N)=O (single isomer, unassigned) [Cpd 018 - En2] |
| > 20000 | CC(=O)C(C)NC(=O)c1c(C)cc2ccc(OCC(F)F)cn12 (single isomer, unassigned) [Cpd 028 - En1] |
| > 20000 | CC(=O)C(C)NC(=O)c1c(C)cc2ccc(OCC(F)F)cn12 (single isomer, unassigned) [Cpd 028 - En2] |

More lines, now with the values behind:

| SMILES | IC50 [nM] |
| --- | --- |
| Cc1cc2ccc(OCc3ccccc3F)cn2c1C(=O)NC(C)(CO)C(N)=O (single isomer, unassigned) [Cpd 005 - En1, 2-({6-[(2-fluorophenyl)methoxy]-2-methylindolizin-3-yl}formamido)-3-hydroxy-2-methylpropanamide] | < 1000 |
| Cc1cc2ccc(OCc3ccccc3F)cn2c1C(=O)NC(C)(CO)C(N)=O (single isomer, unassigned) [Cpd 005 - En2, 2-({6-[(2-fluorophenyl)methoxy]-2-methylindolizin-3-yl}formamido)-3-hydroxy-2-methylpropanamide] | < 1000 |
| Cc1cc2ccc(OCc3ccccc3F)cn2c1C(=O)NC1(CO)CCNC1=O (single isomer, unassigned) [Cpd 007 - En1] | < 1000 |
| Cc1cc2ccc(OCc3ccccc3F)cn2c1C(=O)NC1(CO)CCNC1=O (single isomer, unassigned) [Cpd 007 - En2] | 1000 to 20000 |
| Cc1cc2ccc(OCC3CC3)cn2c1C(=O)NC(C)(CO)C(N)=O (single isomer, unassigned) [Cpd 019 - En1] | < 1000 |
| Cc1cc2ccc(OCC3CC3)cn2c1C(=O)NC(C)(CO)C(N)=O (single isomer, unassigned) [Cpd 019 - En2] | 1000 to 20000 |
| Cc1cc2ccc(OCC3CC3)cn2c1C(=O)NC1(CO)CCNC1=O (single isomer, unassigned) [Cpd 021 - En1] | < 1000 |
| Cc1cc2ccc(OCC3CC3)cn2c1C(=O)NC1(CO)CCNC1=O (single isomer, unassigned) [Cpd 021 - En2] | 1000 to 20000 |
| CC(=O)C(C)NC(=O)c1c(C)cc2ccc(OCC3CC3)cn12 (single isomer, unassigned) [Cpd 023 - En1] | 1000 to 20000 |
| CC(=O)C(C)NC(=O)c1c(C)cc2ccc(OCC3CC3)cn12 (single isomer, unassigned) [Cpd 023 - En2] | 1000 to 20000 |
| Cc1cc2ccc(OCC(F)F)cn2c1C(=O)NC1CNCCC1(F)F (single isomer, unassigned) [Cpd 027 - En1] | 1000 to 20000 |
| Cc1cc2ccc(OCC(F)F)cn2c1C(=O)NC1CNCCC1(F)F (single isomer, unassigned) [Cpd 027 - En2] | > 20000 |
